This is an account of results in patent US4459417A, “Process for preparing spectinomycin analogs: N-demethylation of spectinomycin or its analogs and realkylation of the intermediates” (The Upjohn Company, priority 1983, dated 1984).

What all share (experiment): Minimum inhibitory concentration in vitro
Holding throughout (assay type): cell-based

The subject of one test is S. aureus UC 76. The note with it: for MIC: Staphylococcus aureus, UC76.
For another test, the system named is S. faecalis UC 694. To be noted: for MIC: Enterococcus faecalis, UC694.
The next test has as its system E. coli UC 45. To be noted: for MIC: Escherichia coli, UC45.
A further test deals with K. pneumoniae UC 58. The note with it: for MIC: Klebsiella pneumoniae, UC58.
In another test the test system is Ps. aeruginosa UC 95. The note with it: for MIC: Pseudomonas aeruginosa, UC95.
A further test relates to P. vulgaris UC 93. To be noted: for MIC: Proteus vulgaris, UC93.
For a further test, the system named is P. mirabilis UC 6671. To be noted: for MIC: Proteus mirabilis, UC6671.
The test system of a further test is S. flexneri UC 143. The note with it: Shigella flexneri, UC143.
A further test concerns S. typhi UC 215. To be noted: for MIC: Salmonella enterica, read-out: Minimum Inhibitory Concentration; for Minimum Inhibitory Concentration: in vitro, S. typhi UC 215.
The next test concerns S. marcescens UC 131. The note with it: for MIC: Serratia marcescens, UC131.
A further test relates to S. schottmuelleri UC 126.
The subject of the next test is P. stuartii UC 6570. The note with it: for MIC: Providencia stuartii, UC6570.

Converted amounts (≈) assume the structure as drawn. Counter-ions that a name gives are not always drawn.

Take `CCN[C@@H]1[C@H](O)[C@H](NCC)[C@H]2O[C@@]3(O)C(=O)C[C@@H](C)O[C@H]3O[C@@H]2[C@H]1O` [IIIa, N,N'-didemethyl-N,N'-diethylspectinomycin dihydrochloride]: the MIC against S. aureus UC 76 is 500 µg/mL; against S. faecalis UC 694, greater than 1000 µg/mL; in the test on E. coli UC 45 it was 1000 µg/mL; against K. pneumoniae UC 58, 31.2 µg/mL; against Ps. aeruginosa UC 95, 1000 µg/mL; against P. vulgaris UC 93, 125 µg/mL. Besides, the MIC in the test on P. mirabilis UC 6671 was 62.5 µg/mL; against S. flexneri UC 143, 31.2 µg/mL; with S. typhi UC 215, 1000 µg/mL; with S. marcescens UC 131, 62.5 µg/mL; in the test on S. schottmuelleri UC 126 it was greater than 1000 µg/mL; with P. stuartii UC 6570, greater than 1000 µg/mL.

For `C[C@@H]1CC(=O)[C@]2(O)O[C@@H]3[C@@H](N)[C@@H](O)[C@@H](N)[C@H](O)[C@H]3O[C@@H]2O1` [IIa, N,N'-didemethylspectinomycin dihydrochloride], the MIC against S. aureus UC 76 is 250 µg/mL; with S. faecalis UC 694 it was greater than 1000 µg/mL; in the test on E. coli UC 45, greater than 1000 µg/mL; against K. pneumoniae UC 58 it was 125 µg/mL; in the test with Ps. aeruginosa UC 95, 250 µg/mL; against P. vulgaris UC 93, 125 µg/mL. Further, the MIC against P. mirabilis UC 6671 is 1000 µg/mL; in the test on S. flexneri UC 143, 250 µg/mL; in the test with S. typhi UC 215 it was greater than 1000 µg/mL; in the test with S. marcescens UC 131, 31.2 µg/mL.

Take `CN[C@@H]1[C@H](O)[C@H](NC)[C@H]2O[C@@]3(O)C(=O)C[C@@H](C)O[C@H]3O[C@@H]2[C@H]1O` [Ia, spectinomycin]: the MIC is 7.8 µg/mL (≈ 23.5 µM) against S. aureus UC 76; 31.2 to 62.5 µg/mL (≈ 93.9 to 188 µM) against S. faecalis UC 694; 3.9 to 7.8 µg/mL (≈ 11.7 to 23.5 µM) against E. coli UC 45; 2 to 3.9 µg/mL (≈ 6.02 to 11.7 µM) in the test on K. pneumoniae UC 58; 31.2 µg/mL (≈ 93.9 µM) in the test on Ps. aeruginosa UC 95; 7.8 to 15.6 µg/mL (≈ 23.5 to 46.9 µM) in the test on P. vulgaris UC 93. Besides, the MIC in the test with P. mirabilis UC 6671 was 3.9 to 7.8 µg/mL (≈ 11.7 to 23.5 µM); against S. flexneri UC 143, 3.9 to 7.8 µg/mL (≈ 11.7 to 23.5 µM); in the test on S. typhi UC 215, 3.9 to 7.8 µg/mL (≈ 11.7 to 23.5 µM); against S. marcescens UC 131, 3.9 to 7.8 µg/mL (≈ 11.7 to 23.5 µM); against S. schottmuelleri UC 126 it was 7.8 µg/mL (≈ 23.5 µM); in the test on P. stuartii UC 6570, 1000 µg/mL (≈ 3010 µM).

Consider “Mono-N-demethylspectinomycin dihydrochlorides [IIb]”, for which the “Minimum Inhibitory Concentration” value with S. aureus UC 76 came out at 15.6 Micrograms/Milliliter; with S. faecalis UC 694, 125 Micrograms/Milliliter; with K. pneumoniae UC 58, 15.6 Micrograms/Milliliter; with P. vulgaris UC 93, 15.6 Micrograms/Milliliter; in the test on P. mirabilis UC 6671, 15.6 Micrograms/Milliliter; in the test with S. typhi UC 215, 62.5 Micrograms/Milliliter. Moreover, in the test on S. marcescens UC 131, the “Minimum Inhibitory Concentration” value is on record as 3.9 Micrograms/Milliliter.

“mono-N-demethyl-mono-N-ethylspectinomycin dihydrochloride [IIIb]”: the “Minimum Inhibitory Concentration” value with S. aureus UC 76 is reported as 31.2 Micrograms/Milliliter; in the test with S. faecalis UC 694, 500 Micrograms/Milliliter; with E. coli UC 45, 62.5 Micrograms/Milliliter; in the test with K. pneumoniae UC 58, 3.9 Micrograms/Milliliter; with Ps. aeruginosa UC 95, 31.2 Micrograms/Milliliter; in the test with P. vulgaris UC 93 it was 7.8 Micrograms/Milliliter. The “Minimum Inhibitory Concentration” value was 15.6 Micrograms/Milliliter with P. mirabilis UC 6671, 125 Micrograms/Milliliter in the test with S. typhi UC 215, 7.8 Micrograms/Milliliter in the test with S. marcescens UC 131 and greater than 500 Micrograms/Milliliter in the test on P. stuartii UC 6570.
